Experimental data as given in US20260199323A1, “LIGAND COMPOUNDS FOR E3 UBIQUITIN LIGASE, PROTEIN DEGRADERS DEVELOPED ON BASIS OF LIGAND COMPOUNDS, AND USES THEREOF” (GLUETACS THERAPEUTICS (SHANGHAI) CO., LTD., priority 2021, published 2026).
Read-outs that look alike come from different tables or passages of the source. Values belong to the molecule of their own block, whether it stands above or below them.

Key:
Assay type in all cases: cell-based, Human
[1] = system: CAL-62; assay: CCK-8 tumor cell proliferation, CAL-62; design: IC50 for inhibiting the proliferation of tumor cells, CAL-62: scale not given here; details: for IC50 for inhibiting the proliferation of tumor cells, CAL-62: Table 8, designed based on ER inhibitors, 72 h; for IC50: Homo sapiens, Table 18, FAK inhibitor based, CAL-62, read-out: IC50 inhibiting proliferation of tumor cells, CAL-62
In short: (§1)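 Ten-point titrations (10 μM highest, 5-fold steps) were applied to cells 24 h after seeding. After treatment at 37 °C, 5% CO2, cell viability was read with CCK-8 and IC50 values were computed from the resulting inhibition curves.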

[2] = system: CCRF-CEM; assay: CCK-8 tumor cell proliferation, CCRF-CEM; design: IC50 for inhibiting the proliferation of tumor cells, CCRF-CEM: scale not given here; details: for IC50 for inhibiting the proliferation of tumor cells, CCRF-CEM: Table 8, designed based on ER inhibitors, 96 h; for IC50: Homo sapiens, CCRF-CEM, read-out: IC50 inhibiting proliferation of tumor cells, CCRF-CEM
In short: as §1

[3] = system: Vcap; assay: CCK-8 tumor cell proliferation, Vcap; details: for IC50 for inhibiting the proliferation of tumor cells, Vcap: Table 8, designed based on ER inhibitors, 96 h; for IC50: Homo sapiens, VCaP, Vcap, read-out: IC50 inhibiting proliferation of tumor cells, Vcap
Description: (§2) The tumor cells used herein were cultured in a cell culture medium listed in table 4 at 37° C. in an incubator with 5% CO2. Prior to experimentation, all cells used were correctly identified by STR profiling, and tested negative for mycoplasma through routine screenings.
(§3) IC50 values of the compounds of the present disclosure (including the compounds in Tables 1 and 3, and compounds of examples) were measured using the Meilun Cell Counting Kit-8 kit from Dalian Meilun Biotech Co., Ltd. Assay details are as follows: tumor cells were seeded in a 96-well plate at a density listed in Table 5. After 24 h, 100 μL of the inoculated cells were treated with 0.5 μL of the compounds of the present disclosure (including the compounds in Tables 1 and 3, and compounds of examples) at 10 different successively decreasing concentrations (starting at the highest concentration of 10 μM; 5-fold serial dilutions). After the cells were treated with the compounds of the present disclosure for a period of time, the cell viability detection reagent was added to the culture medium for cell viability assessment according to the instructions provided with the CCK-8 kit. […] The growth inhibition of the compounds of the present disclosure on cells was plotted by Prism Graphpad software, and the IC50 values of the compounds of the present disclosure were calculated therefrom.

[4] = system: SW620; assay: CCK-8 tumor cell proliferation, SW620; details: for IC50 for inhibiting the proliferation of tumor cells, SW620: Table 8, designed based on ER inhibitors, 96 h; for IC50: Homo sapiens, SW-620, Table 18, FAK inhibitor based, SW620, read-out: IC50 inhibiting proliferation of tumor cells, SW620
In short: as §1

[5] = system: MV-4-11; assay: CCK-8 tumor cell proliferation, MV-4-11; details: Homo sapiens, MV4-11; Table 15, ALK inhibitor based; MV-4-11; read-out: IC50 inhibiting proliferation of tumor cells, MV-4-11
Description: as §2, §3

[6] = system: Mino; assay: CCK-8 tumor cell proliferation, Mino; details: Homo sapiens, Mino, read-out: IC50 inhibiting proliferation of tumor cells, Mino
Description: as §2, §3

[7] = system: MDA-MB-231; assay: CCK-8 tumor cell proliferation, MDA-MB-231; details: Homo sapiens, MDA-MB-231, read-out: IC50 inhibiting proliferation of tumor cells, MDA-MB-231
In short: as §1

[8] = system: SR; assay: CCK-8 tumor cell proliferation, SR; details: Homo sapiens; Table 15, ALK inhibitor based; SR; read-out: IC50 inhibiting proliferation of tumor cells, SR
In short: as §1

[9] = system: PC-9; assay: CCK-8 tumor cell proliferation, PC-9; details: Homo sapiens, PC-9, read-out: IC50 inhibiting proliferation of tumor cells, PC-9
Description: The tumor cells used herein were cultured in a cell culture medium listed in table 4 at 37° C. in an incubator with 5% CO2.
as §3, with “After” for “IC50 values of the compounds of the present disclosure (including the compounds in Tables 1 and 3, and compounds of examples) were measured using the Meilun Cell Counting Kit-8 kit from Dalian Meilun Biotech Co., Ltd. Assay details are as follows: tumor cells were seeded in a 96-well plate at a density listed in Table 5. After”

[10] = system: Jurkat; assay: CCK-8 tumor cell proliferation, Jurkat; details: Homo sapiens, Table 22, NTRK inhibitor based, read-out: IC50 inhibiting proliferation of tumor cells, Jurkat
Description: as §2, §3

IC50 for inhibiting the proliferation of tumor cells, CAL-62 [1]: A+
IC50 for inhibiting the proliferation of tumor cells, CCRF-CEM [2]: A+
IC50 for inhibiting the proliferation of tumor cells, Vcap [3]: A+
IC50 for inhibiting the proliferation of tumor cells, SW620 [4]: A+
Structure (SMILES): CCC(=C(c1ccc(O)cc1)c1ccc(N2CCN(Cc3cc4c(cc3F)C(=O)N(C3CCC(=O)NC3=O)C4)CC2)cc1)c1ccc(O)cc1 (stereo not drawn) [GT-04145, 3-(5-((4-(4-(1,2-bis(4-hydroxyphenyl)but-1-en-1-yl)phenyl)piperazin-1-yl)methyl)-6-fluoro-1-oxoisoindolin-2-yl)piperidine-2,6-dione]

IC50 for inhibiting the proliferation of tumor cells, CAL-62 [1]: A+
IC50 for inhibiting the proliferation of tumor cells, CCRF-CEM [2]: A+
IC50 for inhibiting the proliferation of tumor cells, Vcap [3]: A+
Structure (SMILES): CCC(=C(c1ccc(O)cc1)c1ccc(N2CCN(Cc3ccc4c(c3)C(=O)N(C3CCC(=O)NC3=O)C4=O)CC2)cc1)c1ccc(O)cc1 (stereo not drawn) [GT-04148, 5-((4-(4-(1,2-bis(4-hydroxyphenyl)but-1-en-1-yl)phenyl)piperazin-1-yl)methyl)-2-(2,6-dioxopiperidin-3-yl)isoindoline-1,3-dione]

IC50 for inhibiting the proliferation of tumor cells, CAL-62 [1]: A+
IC50 for inhibiting the proliferation of tumor cells, CCRF-CEM [2]: A+
IC50 for inhibiting the proliferation of tumor cells, Vcap [3]: A+
IC50 for inhibiting the proliferation of tumor cells, SW620 [4]: A+
Structure (SMILES): CCC(=C(c1ccc(O)cc1)c1ccc(N2CCN(Cc3ccc4c(c3F)CN(C3CCC(=O)NC3=O)C4=O)CC2)cc1)c1ccc(O)cc1 (stereo not drawn) [GT-04144, 3-(5-((4-(4-(1,2-bis(4-hydroxyphenyl)but-1-en-1-yl)phenyl)piperazin-1-yl)methyl)-4-fluoro-1-oxoisoindolin-2-yl)piperidine-2,6-dione]

IC50 [1]: < 0.05 µM
IC50 ([3]; Table 18, FAK inhibitor based): 0.1 to 0.5 µM
IC50 [4]: < 0.05 µM
Structure (SMILES): CNC(=O)c1ccccc1Nc1cc(Nc2cc(C)c(N3CCN(Cc4ccc5c(c4F)CN(C4CCC(=O)NC4=O)C5=O)CC3)cc2OC(C)C)ncc1C(F)(F)F (stereo not drawn) [GT-03941, 2-((2-((4-(4-((2-(2,6-dioxopiperidin-3-yl)-4-fluoro-1-oxoisoindolin-5-yl)methyl)piperazin-1-yl)-2-isopropoxy-5-methylphenyl)amino)-5-(trifluoromethyl)pyridin-4-yl)amino)-N-methylbenzamide]

IC50 for inhibiting the proliferation of tumor cells, CAL-62 [1]: A+
IC50 for inhibiting the proliferation of tumor cells, CCRF-CEM [2]: A+
IC50 for inhibiting the proliferation of tumor cells, Vcap [3]: A+
Structure (SMILES): O=C1CCC(N2C(=O)c3ccc(CBr)cc3C2=O)C(=O)N1 (stereo not drawn) [GT-03855]

IC50 [5]: 0.05 to 0.1 µM
IC50 ([6]; Table 15, ALK inhibitor based): 0.05 to 0.1 µM
IC50 ([7]; Table 15, ALK inhibitor based): 0.05 to 0.1 µM
IC50 [8]: < 0.05 µM
IC50 ([9]; Table 15, ALK inhibitor based): 0.1 to 0.5 µM
Structure (SMILES): CCc1cc2c(cc1N1CCC(N3CCN(Cc4cccc5c4CN(C4CCC(=O)NC4=O)C5=O)CC3)CC1)C(C)(C)c1[nH]c3cc(C#N)ccc3c1C2=O (stereo not drawn) [GT-03764, 8-(4-(4-((2-(2,6-dioxopiperidin-3-yl)-1-oxoisoindolin-4-yl)methyl)piperazin-1-yl)piperidin-1-yl)-9-ethyl-6,6-dimethyl-11-oxo-6,11-dihydro-5H-benzo[b]carbazole-3-carbonitrile]

IC50 [10]: < 0.05 µM
IC50 ([2]; Table 22, NTRK inhibitor based): < 0.05 µM
IC50 ([3]; Table 22, NTRK inhibitor based): 0.05 to 0.1 µM
Structure (SMILES): O=C1CCC(N2Cc3cc(CN4CCN(c5cccc(-c6cnc7ccc(N8CCC[C@@H]8c8cccc(F)c8)nn67)n5)CC4)c(F)cc3C2=O)C(=O)N1 (stereo partly drawn) [GT-03866, 3-(6-fluoro-5-((4-(6-(6-((R)-2-(3-fluorophenyl)pyrrolidin-1-yl)imidazo[1,2-b]pyridazin-3-yl)pyridin-2-yl)piperazin-1-yl)methyl)-1-oxoisoindolin-2-yl)piperidine-2,6-dione]

IC50 ([6]; Table 18, FAK inhibitor based): < 0.05 µM
IC50 ([7]; Table 18, FAK inhibitor based): < 0.05 µM
IC50 ([2]; Table 18, FAK inhibitor based): 0.05 to 0.1 µM
IC50 ([3]; Table 18, FAK inhibitor based): 0.1 to 0.5 µM
IC50 [4]: 0.1 to 0.5 µM
IC50 ([9]; Table 18, FAK inhibitor based): 1 to 5 µM
Structure (SMILES): CN(Cc1ccc2c(c1)CN(C1CCC(=O)NC1=O)C2=O)C1CCN(c2ccc(Nc3ncc(C(F)(F)F)c(NCc4nccnc4N(C)S(C)(=O)=O)n3)cc2)CC1 (stereo not drawn) [GT-03705, N-(3-(((2-((4-(4-(((2-(2,6-dioxopiperidin-3-yl)-1-oxoisoindolin-5-yl)methyl)(methyl)amino)piperidin-1-yl)phenyl)amino)-5-(trifluoromethyl)pyrimidin-4-yl)amino)methyl)pyrazin-2-yl)-N-methylmethanesulfonamide]

IC50 for inhibiting the proliferation of tumor cells, CAL-62 [1]: A+
IC50 for inhibiting the proliferation of tumor cells, CCRF-CEM [2]: A+
IC50 for inhibiting the proliferation of tumor cells, Vcap [3]: A+
Structure (SMILES): CCC(=C(c1ccc(O)cc1)c1ccc(N2CCN(Cc3cccc4c3CN(C3CCC(=O)NC3=O)C4=O)CC2)cc1)c1ccc(O)cc1 (stereo not drawn) [GT-04147, 3-(4-((4-(4-(1,2-bis(4-hydroxyphenyl)but-1-en-1-yl)phenyl)piperazin-1-yl)methyl)-1-oxoisoindolin-2-yl)piperidine-2,6-dione]

IC50 for inhibiting the proliferation of tumor cells, CAL-62 [1]: A+
IC50 for inhibiting the proliferation of tumor cells, CCRF-CEM [2]: A+
IC50 for inhibiting the proliferation of tumor cells, Vcap [3]: A+
IC50 for inhibiting the proliferation of tumor cells, SW620 [4]: A+
Structure (SMILES): CCC(=C(c1ccc(O)cc1)c1ccc(N2CCN(Cc3cc(F)c4c(c3)CN(C3CCC(=O)NC3=O)C4=O)CC2)cc1)c1ccc(O)cc1 (stereo not drawn) [GT-04146, 3-(5-((4-(4-(1,2-bis(4-hydroxyphenyl)but-1-en-1-yl)phenyl)piperazin-1-yl)methyl)-7-fluoro-1-oxoisoindolin-2-yl)piperidine-2,6-dione]

IC50 [1]: < 0.05 µM
IC50 ([3]; Table 18, FAK inhibitor based): 0.5 to 1 µM
IC50 [4]: 0.05 to 0.1 µM
Structure (SMILES): CNC(=O)c1ccccc1Nc1cc(Nc2cc(C)c(N3CCN(Cc4ccc5c(c4)CN(C4CCC(=O)NC4=O)C5=O)CC3)cc2OC(C)C)ncc1C(F)(F)F (stereo not drawn) [GT-03940, 2-((2-((4-(4-((2-(2,6-dioxopiperidin-3-yl)-1-oxoisoindolin-5-yl)methyl)piperazin-1-yl)-2-isopropoxy-5-methylphenyl)amino)-5-(trifluoromethyl)pyridin-4-yl)amino)-N-methylbenzamide]

IC50 [5]: 0.1 to 0.5 µM
IC50 ([6]; Table 15, ALK inhibitor based): 0.5 to 1 µM
IC50 [8]: < 0.05 µM
IC50 ([9]; Table 15, ALK inhibitor based): 0.1 to 0.5 µM
Structure (SMILES): CCc1cc2c(cc1N1CCC(N3CCN(Cc4cc5c(cc4F)C(=O)N(C4CCC(=O)NC4=O)C5)CC3)CC1)C(C)(C)c1[nH]c3cc(C#N)ccc3c1C2=O (stereo not drawn) [GT-03759, 8-(4-(4-((2-(2,6-dioxopiperidin-3-yl)-6-fluoro-1-oxoisoindolin-5-yl)methyl)piperazin-1-yl)piperidin-1-yl)-9-ethyl-6,6-dimethyl-11-oxo-6,11-dihydro-5H-benzo[b]carbazole-3-carbonitrile]
